# Reference: US10765754B2, “Compositions and methods related to inhibition of respiratory syncytial virus entry” (priority 2015, dated 2020)
# Where two headings read alike, the source gives them in different places. Starred links: 1 amine or outer side, 2 acyl side, 3 side chain; linkers in the order of their positions; H or OH if unused. Positions of bridges follow the written chain, without caps; N, C: chain ends. Non-standard residues stand in square brackets, D forms with d. Residues, ends and D or L forms follow the SMILES beside them. Chains are numbered I, II in the order given. No end group written: not given here. X1 = NCCOCCOCCOCCOCCOCCOCCOCCOCCOCCOCCOCCOCCOCCOCCOCCOCCOCCOCCOCCOCCOCCOCCOCCOCCOCCOCCOCCOCCC(=O)NC(CCC(=O)[*:1])(CCC(=O)[*:2])CCC(=O)[*:3]; X2 = CC(COCCC(=O)[*:1])(COCCC(=O)[*:2])COCCC(=O)[*:3]; PEG6 = NCCOCCOCCOCCOCCOCCOCCC(=O)O
# Assays:
# [1] = target: T1, RSV-A/IZN45 (Human respiratory syncytial virus A, UniProt P03420); assay: SPR binding to RSV-A IZN45 N-trimer mimic
# T1 construct: N-trimer Mimics Synthesized; made in house; host or cells: chemical peptide synthesis
# From the text: (§1) IZN45 N-trimer mimic comprises the IZ domain, a highly soluble, designed coiled-coil that helps solubilize the N-trimer, along with the C-terminal (bottom) 45 residues of the RSV N-trimer. IZN45 encompasses the full ordered portion of the N-trimer except for three N-terminal residues (removed to maintain a continuous heptad repeat with the IZ domain). The interactions between 35-residue RSV C-peptides, T108 and T118 (Lambert et al., 1996, Proc. Natl. Acad. Sci. USA 93:2186-2191), and IZN45 was examined by surface plasmon resonance (SPR). SPR is a gold standard assay to measure the kinetics and affinity of biological interactions. […] The Biotinylated L-form of RSV target IZN45 was captured onto one lane of a NeutrAvidin coated SPR chip. A mutant version of IZN45 containing four mutated residues along the N-trimer groove designed to disrupt binding (IZN45 Full Mut, negative control) was captured onto a separate lane of the NeutrAvidin chip. T118, corresponding to the C-terminal portion of the RSV F ectodomain, which is known to interact with the RSV N-trimer groove, was flowed over the various surfaces. […] The surfaces were regenerated with a detergent (0.1% SDS) after each injection of analyte. Various concentrations of T118 were measured in duplicate or triplicate injections. D-peptide interactions with IZN45 and IZN45-Full Mut surfaces were also measured using this method.
# (§2) Peptides from the ‘winning’ phage clones from each library were synthesized as D-peptides. If solubility of the peptides was limited, N- or C-terminal charged residue(s) (e.g., lysine) were attached as necessary as previously described for HIV peptides in Eckert et al., 1999, Cell 99:103-15, incorporated by reference in its entirety. Binding affinity and kinetics of the D-peptide inhibitors to the IZN45 and IZN45 mutants was characterized by SPR (Biacore 3000), using methods as described in Welch et al., 2007, Proc. Natl. Acad. Sci. USA 104:16828-33, incorporated by reference in its entirety.
# [2] = target: T2, RSV-B/IZN45 (Human respiratory syncytial virus B, UniProt O36634); assay: biochemical; assay type: binding
# T2 construct: N-trimer Mimics Synthesized; made in house; host or cells: chemical peptide synthesis
# T2 sequence (O36634 163-207, added parts left off): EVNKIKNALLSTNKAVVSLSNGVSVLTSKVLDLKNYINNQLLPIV
# From the text: as §1, §2
# [3] = target: T3, RSV-A F protein (Human respiratory syncytial virus A, UniProt P03420); assay: cell-based
# T3 construct: expressed in transfected cells; host or cells: 293 T cells
# T3 sequence (P03420 137-574): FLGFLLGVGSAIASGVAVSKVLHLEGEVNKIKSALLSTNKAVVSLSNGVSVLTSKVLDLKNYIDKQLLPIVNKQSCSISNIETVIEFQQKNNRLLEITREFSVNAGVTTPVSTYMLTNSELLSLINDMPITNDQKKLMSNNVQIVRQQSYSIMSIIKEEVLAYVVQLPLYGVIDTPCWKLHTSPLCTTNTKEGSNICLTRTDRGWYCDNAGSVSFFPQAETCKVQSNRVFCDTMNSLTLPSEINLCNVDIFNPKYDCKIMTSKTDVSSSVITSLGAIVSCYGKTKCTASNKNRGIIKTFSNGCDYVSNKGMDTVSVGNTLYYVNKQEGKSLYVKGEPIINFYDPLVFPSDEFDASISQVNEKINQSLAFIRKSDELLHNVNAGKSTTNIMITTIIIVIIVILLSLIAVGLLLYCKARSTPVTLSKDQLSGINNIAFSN
# T3 sequence (P03420 26-109): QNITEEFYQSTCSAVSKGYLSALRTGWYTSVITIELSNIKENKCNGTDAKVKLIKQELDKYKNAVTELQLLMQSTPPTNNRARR
# Protocol: The RSV Syncytia reduction assay was used to evaluate D-peptide inhibitors of RSV entry (IC50). In brief, 293 T cell were plated in a 96-well plate and a 6-well plate. The cells in the 96-well plate were co-transfected with DNA encoding the RSV F protein (or RSV G protein as a negative control) and DNA encoding firefly luciferase downstream of multiple GAL4 binding sites (CheckMate Mammalian Two-Hybrid system, Promega). These cells were designated the effector cells. The cells in the 6-well plate were transfected with GAL4:Id and VP16:MyoD fusion constructs, which interact and drive gene expression in the presence of GAL4 binding sites. These cells were the target cells. At 24 hours post-transfection, the media is removed from the effector cells and D-peptide inhibitors at 2× concentration (diluted in fresh media) were added. Also at 24 hours post-transfection, the target cells are washed with PBS, gently dissociated from the 6-well plate using Versene (0.48 mM EDTA in PBS), and overlaid (at equal volume) onto the effector cells containing 2× inhibitor. At 48 h post-transfection, the cells are lysed using Glo Lysis Buffer (Promega). Bright Glo luciferase assay substrate is added and luminescent signal from expressed luciferase is measured. Luciferase is only expressed in effector cells that fuse (form syncytia) with target cells.
# [4] = Kd, synthesized peptide, RSV-A/IZN45, KD determined by SPR
# [5] = synthesized peptide, RSV-B/IZN45, KD determined by SPR
# [6] = IC50, (L) inhibitors of RSV, controls for D-peptide studies, assay not stated in Table 6
# [7] = (L) inhibitors of RSV, controls for D-peptide studies, assay not stated in Table 6, read-out: IC50
# [8] = Kd, subsequent trimer/compound made from peptide, RSV-A/IZN45, SPR
molecule,measurement,setting,value
CSCC[C@@H](NC(=O)[C@@H](CO)NC(=O)CNC(=O)[C@@H](CC(=O)O)NC(=O)[C@@H](CC(=O)O)NC(=O)CCOCCOCCOCCOCCOCCOCCNC(=O)[C@@H](CCCCN)NC(C)=O)C(=O)N[C@@H]1CSSC[C@H](C(=O)NCC(=O)N[C@@H](C(N)=O)[C@H](C)O)NC(=O)[C@@H](Cc2c[nH]c3ccccc23)NC(=O)[C@@H](CC(=O)O)NC(=O)[C@@H](CC(C)C)NC(=O)[C@@H](CC(C)C)NC(=O)[C@@H](Cc2c[nH]c3ccccc23)NC(=O)[C@@H](CCC(=O)O)NC(=O)[C@H]2CCCN2C(=O)[C@@H](CCCNC(=N)N)NC(=O)[C@@H](CC(N)=O)NC(=O)[C@@H](C(C)C)NC1=O [Ac-K(PEG6)DDG-RSVP24] (Ac-[dK][PEG6][dD][dD]G[dS][dM][dC][dV][dN][dR][dP][dE][dW][dL][dL][dD][dW][dC]G[dT]-NH2; disulfide 8-19),Kd,[1]; [4],2100 nM
same,Kd,[2]; [5],1800 nM
Ac-IKKEIEAIKKEQEAIKKKIEAIEKEVNKIKSALLSTNKAVVSLSNGVSVLTSKVLDLKNYIDKQLLPIV-NH2 [Ac-RSV-A IZN45],IC50,[3]; [6],6 nM
"I: H-[dK]G[dR][dW][dF][dE][dL][dP][dE][dP][dD][dW][dW]G[PEG6][dK]G[dK]G-NH2 / II: H-[dK]G[dR][dW][dF][dE][dL][dP][dE][dP][dD][dW][dW]G[PEG6] / III: H-[dK]G[dR][dW][dF][dE][dL][dP][dE][dP][dD][dW][dW]G[PEG6] (amide I:16-II:C, I:18-III:C) [KG-RSVP1-G(PEG6)-Tricasso]",Kd,[1]; [4],~20 nM
(biotin-PEG2)GKG-IKKEIEAIKKEQEAIKKKIEALEGEVNKIKSALLSTNKAVVSLSNGVSVLTSKVLDLKNYIDKQLLPIV-NH2 [(Biotin-PEG2)GKG-RSVA IZN48],IC50,[3]; [7],215 nM
CC(=O)N[C@H](CCCCN)C(=O)NCC(=O)NCC(=O)N[C@H](C)C(=O)N[C@@H]1CSSC[C@H](C(=O)N[C@H](C)C(=O)N[C@H](C)C(N)=O)NC(=O)[C@@H](Cc2c[nH]c3ccccc23)NC(=O)[C@@H](CC(=O)O)NC(=O)[C@@H](CC(C)C)NC(=O)[C@@H](CC(C)C)NC(=O)[C@@H](Cc2c[nH]c3ccccc23)NC(=O)[C@@H](Cc2c[nH]cn2)NC(=O)[C@H]2CCCN2C(=O)[C@@H](CCC(=O)O)NC(=O)[C@@H](CC(N)=O)NC(=O)[C@@H](CCCNC(=N)N)NC1=O [Ac-KG-RSVP20] (Ac-[dK]GG[dA][dC][dR][dN][dE][dP][dH][dW][dL][dL][dD][dW][dC][dA][dA]-NH2; disulfide 5-16),IC50,"[3]; IC50, synthesized peptide, syncytia reduction assay using RSV-A F protein",673000 nM
"I: Ac-[dK][PEG6]G[dH][dA][dC][dV][dN][dR][dP][dE][dW][dL][dL][dD][dW][dC]G[dR]G[dR][dR]-NH2 / II: Ac-[dK][PEG6]G[dH][dA][dC][dV][dN][dR][dP][dE][dW][dL][dL][dD][dW][dC]G[dR]G[dR][dR]-NH2 / III: Ac-[dK][PEG6]G[dH][dA][dC][dV][dN][dR][dP][dE][dW][dL][dL][dD][dW][dC]G[dR]G[dR][dR]-NH2 (linker I:1-II:1-III:1 via X1; disulfide I:6-I:17, II:6-II:17, III:6-III:17) [Ac-K(PEG6)G-RSVP26-GRR-trimer]",IC50,"[3]; IC50, subsequent trimer/compound made from peptide, syncytia reduction assay using RSV-A F protein",5500 nM
H-YGFDASISQVNEKINQSLAFIRKSDELLHNVNAGKST-NH2 [YG-T118],IC50,[3]; [6],8000 nM
"I: Ac-[dK][PEG6]G[dA][dC][dT][dN][dR][dA][dE][dW][dL][dI][dD][dW][dC][dA][dA]-NH2 / II: Ac-[dK][PEG6]G[dA][dC][dT][dN][dR][dA][dE][dW][dL][dI][dD][dW][dC][dA][dA]-NH2 / III: Ac-[dK][PEG6]G[dA][dC][dT][dN][dR][dA][dE][dW][dL][dI][dD][dW][dC][dA][dA]-NH2 (linker I:1-II:1-III:1 via X1; disulfide I:5-I:16, II:5-II:16, III:5-III:16; C-terminus assumed) [Ac-K(PEG6)-RSVP21-trimer]",Kd,[1]; [8],0.3 nM
same,Kd,"[2]; subsequent trimer/compound made from peptide, RSV-B/IZN45, SPR",1.8 nM
I: Ac-[dI][dS][dL][dP][dT][dP][dT][dW][dW][dP][dS][dT]GG[PEG6][dK]-NH2 / II: Ac-[dI][dS][dL][dP][dT][dP][dT][dW][dW][dP][dS][dT]GG[PEG6][dK]-NH2 / III: Ac-[dI][dS][dL][dP][dT][dP][dT][dW][dW][dP][dS][dT]GG[PEG6][dK]-NH2 (linker I:16-II:16-III:16 via X2; C-terminus assumed) [Ac-X12-45-GG(PEG6)K-trimer],Kd,"[1]; KD, FIG. 10A, RSV-A version of IZN45",49 nM
same,Kd,[1]; [8],53 nM
same,Kd,"[2]; FIG. 10B, RSV-B version of IZN45",66 nM
LEGEVNKIKSALLSTNKAVVSLSNGVSVLTSKVLDLKNYIDKQLLPIVNIKKEIEAIKKEQEAIKKKIEAI-GKG-(Glu-biotinyl-PEG)-NH2 [RSVA N49IZ-GKG(Glu-Biotinyl-PEG)],IC50,[3]; [7],102 nM
"I: H-[dR][dW][dF][dE][dL][dP][dE][dP][dD][dW][dW]G[dK][PEG6][dK]G[dK]G-NH2 / II: H-[dR][dW][dF][dE][dL][dP][dE][dP][dD][dW][dW]G[dK][PEG6] / III: H-[dR][dW][dF][dE][dL][dP][dE][dP][dD][dW][dW]G[dK][PEG6] (amide I:15-II:C, I:17-III:C) [RSVP1-GK(PEG6)-Tricasso]",Kd,[1]; [4],~20 nM
CSCC[C@@H](NC(=O)[C@@H](Cc1c[nH]c2ccccc12)NC(=O)[C@@H](Cc1c[nH]c2ccccc12)NC(=O)[C@@H](Cc1ccc(O)cc1)NC(=O)[C@@H](CCCCN)NC(=O)[C@@H](CC(C)C)NC(=O)[C@@H](CO)NC(C)=O)C(=O)N[C@H](CCC(=O)O)C(=O)N[C@H](CCC(=O)O)C(=O)N[C@H](CC(C)C)C(=O)N1CCC[C@@H]1C(=O)N[C@H](CC(C)C)C(=O)N1CCC[C@@H]1C(=O)N[C@H](CCCCN)C(=O)N[C@H](Cc1c[nH]c2ccccc12)C(=O)N[C@H](Cc1c[nH]c2ccccc12)C(=O)NCC(=O)NCC(N)=O [Ac-X16-18-GG] (Ac-[dS][dL][dK][dY][dW][dW][dM][dE][dE][dL][dP][dL][dP][dK][dW][dW]GG-NH2),Kd,[2]; [5],5400 nM
CC[C@@H](C)[C@H]1NC(=O)[C@@H](CCCCN)NC(=O)[C@H](NC(=O)[C@@H](C)NC(=O)CNC(C)=O)CSSC[C@H](C(=O)N[C@H](C)C(=O)N[C@H](C)C(N)=O)NC(=O)[C@@H](CC(=O)O)NC(=O)[C@@H](Cc2c[nH]cn2)NC(=O)[C@@H](Cc2c[nH]c3ccccc23)NC(=O)[C@@H](Cc2c[nH]cn2)NC(=O)[C@@H](Cc2ccccc2)NC(=O)[C@@H](CC(C)C)NC(=O)[C@@H](CC(=O)O)NC(=O)[C@@H](Cc2c[nH]cn2)NC1=O [Ac-CX10C-119] (Ac-G[dA][dC][dK][dI][dH][dD][dL][dF][dH][dW][dH][dD][dC][dA][dA]-NH2; disulfide 3-14),Kd,[2]; [5],280000 nM
"I: [dK]G[dR][dW][dF][dE][dL][dP][dE][dP][dE][dW][dW]G[PEG6][dK]G[dK]G-NH2 / II: [dK]G[dR][dW][dF][dE][dL][dP][dE][dP][dE][dW][dW]G[PEG6] / III: [dK]G[dR][dW][dF][dE][dL][dP][dE][dP][dE][dW][dW]G[PEG6] (amide I:16-II:C, I:18-III:C) [KG-RSVP7-G(PEG6)-Tricasso]",Kd,[1]; [4],~20 nM
CSCC[C@@H](NC(=O)[C@@H](Cc1c[nH]c2ccccc12)NC(=O)[C@@H](Cc1c[nH]c2ccccc12)NC(=O)[C@@H](Cc1ccc(O)cc1)NC(=O)[C@@H](CCCCN)NC(=O)[C@@H](CC(C)C)NC(=O)[C@H](N)CO)C(=O)N[C@H](CCC(=O)O)C(=O)N[C@H](CCC(=O)O)C(=O)N[C@H](CC(C)C)C(=O)N1CCC[C@@H]1C(=O)N[C@H](CC(C)C)C(=O)N1CCC[C@@H]1C(=O)N[C@H](CCCCN)C(=O)N[C@H](Cc1c[nH]c2ccccc12)C(=O)N[C@H](Cc1c[nH]c2ccccc12)C(=O)NCC(=O)NCC(N)=O [X16-18-GG] (H-[dS][dL][dK][dY][dW][dW][dM][dE][dE][dL][dP][dL][dP][dK][dW][dW]GG-NH2),Kd,[2]; [5],24000 nM
